{
  "source": "patent EP0679399B1",
  "about": "“Phosphate diesters for treatment of epidermis proliferative diseases” (Senju Pharmaceutical Co., Ltd., priority 1994, dated 1995)",
  "key": {"[1]": {"assay": "Acute toxicity (LD50) in rats", "conditions": "rat, in vivo", "experimental": "The present compounds are very safe with extremely low toxic potential and can, therefore, be used with advantage for the purposes of this invention. For example, the LD50 of L-ascorbyl DL-α-tocopheryl phosphate potassium (abbreviation: EPC-K): is ≥ 5 g/kg p.o. (rats) and ≥ 100 mg/kg i.v. (rats)."}, "[2]": {"system": "mouse model of psoriasis vulgaris", "assay": "Mouse model of psoriasis vulgaris induced by TPA (ear epidermal weight gain, ear swelling rate)", "type": "in vivo, ddY mice", "conditions": "for inhibited the epidermal weight gain: relative to control; for Epidermal weight % gain: right vs left auricle, 72 hours after TPA, mean±SD (n=6-9)", "experimental": "The efficacy of EPC-K was assayed in the mouse model of psoriasis vulgaris using 12-o-tetradecanoylphorbol-13-acetate (briefly TPA).\nMale 6-week-old ddY mice purchased from SLC Japan were used.\nThe entire external surface of the right auricle of each mouse was coated with 20 nmol/40 µl of TPA/methanol, and after 6, 24, 48 and 72 hours, the thickness of the auricle was measured with a dial thickness gauge. The ear swelling rate (%) was then calculated. At 72 hours after application of TPA, the mouse was sacrificed and the right and left auricles were respectively punched out with a 8 mm (dia.) punch. The epidermis of each auricle was peeled off and the epidermal weight was determined. Then, the % gain in epidermal weight of the right auricle relative to the left auricle was calculated.\nEach test substance was extemporaneously blended with TPA-methanol and 40 µl of the mixture was applied to the external surface of the right auricle of each mouse. Then, a methanolic solution of the corresponding test substance, 40 µl, was applied once daily for 2 days.\nDunnet's test was used for statistical efficacy evaluation of the test substance."}},
  "data": [
    {"smiles": "Cc1c(C)c2c(c(C)c1OP(=O)(O)OC1=C(O)[C@@H]([C@@H](O)CO)OC1=O)CCC(C)(CCCC(C)CCCC(C)CCCC(C)C)O2", "note": "(mixture of isomers) [EPC-K, L-ascorbyl DL-α-tocopheryl phosphate potassium]", "values": [
      {"measurement": "LD50", "setting": "[1]; iv", "value": "≥ 100", "unit": "mg/kg"},
      {"measurement": "LD50", "setting": "[1]; po", "value": "≥ 5000", "unit": "mg/kg"},
      {"measurement": "inhibited the epidermal weight gain", "setting": "[2]; 500 µg/auricle", "value": 52.8, "unit": "%"},
      {"measurement": "Epidermal weight % gain", "setting": "[2]; 500 µg/auricle", "value": "52.4±40.1", "unit": "%"},
      {"measurement": "ear swelling rate", "setting": "[2]; 1000 µg/auricle, compared with 25 µg betamethasone valerate (Fig. 1)", "value": "more potent inhibitory effect"},
      {"measurement": "inhibited the epidermal weight gain", "setting": "[2]; 1000 µg/auricle", "value": 80.3, "unit": "%"},
      {"measurement": "Epidermal weight % gain", "setting": "[2]; 1000 µg/auricle", "value": "21.8±17.4", "unit": "%"},
      {"measurement": "ear swelling rate", "setting": "[2]; 500 and 1000 µg/auricle, 6, 24, 48 and 72 hours after TPA (Fig. 1)", "value": "dose-dependent inhibitory effects at all points of time"}
    ]},
    {"smiles": "CCCCC(=O)O[C@]1(C(=O)CO)[C@@H](C)C[C@H]2[C@@H]3CCC4=CC(=O)C=C[C@]4(C)[C@@]3(F)[C@@H](O)C[C@@]21C", "note": "[Betamethasone valerate, reference compound]", "values": [
      {"measurement": "body weight (side effect)", "setting": "[2]; 25 µg/auricle", "value": "induced body weight loss"},
      {"measurement": "ear swelling rate", "setting": "[2]; 25 µg/auricle, 6, 24, 48 and 72 hours after TPA (Fig. 1)", "value": "fairly potent efficacy but its effect had been attenuated by 24 and 48 hours after application"},
      {"measurement": "inhibited the epidermal weight gain", "setting": "[2]; 25 µg/auricle", "value": 81.1, "unit": "%"},
      {"measurement": "Epidermal weight % gain", "setting": "[2]; 25 µg/auricle", "value": "21.0±19.9", "unit": "%"}
    ]}
  ]
}
